Experiment [1] concerns the target IKKβ-IKKγ complexes (Homo sapiens, UniProt O14920+Q9Y6K9). The experiment can be described thus: In vitro association of IKKβ with GST-IKKγ in absence and presence of MUC1-CD proteins. The experiment is classed as binding. The note with it: purified IKKβ and GST-IKKγ, with or without added MUC1 protein. How it is done:
FIG. 7C is a series of photographs of immunoblots. GST- or GST-IKKγ bound to glutathione beads was incubated with IKKβ in the absence and presence of MUC1-CD protein. The precipitates were immunoblotted (IB) with anti-IKKβ (upper panel). Input amounts of the various proteins were assessed by immunoblotting with the indicated antibodies (lower 3 panels). The molecular weights of proteins (as indicated on the left of the photographs) are expressed as kilodaltons (kDa).
FIG. 12 is a series of photographs of immunoblots. GST, and GST-IKKγ fusion proteins bound to glutathione beads were incubated with MUC1-CD, MUC1-CD(mSRM), or IKKβ proteins as indicated. The GST-pull down precipitates were immunoblotted (IB) with antibodies specific for IKKγ (top panel), IKKβ (middle panel), or MUC1 (bottom panel) as indicated. The molecular weights of proteins (as indicated on the left of the photographs) are expressed as kilodaltons (kDa).
In vitro binding assays. Purified GST-MUC1-CD (glutathione s-transferase fused to the MUC1-CD polypeptide) was cleaved with thrombin to remove the GST moiety. […] Adsorbates to glutathione-conjugated beads were analyzed by immunoblotting.

Experiment [2] relates to ZR-75-1/MUC1siRNA cells. Put plainly: Expression of Flag-tagged MUC1-CD in ZR-75-1/MUC1siRNA cells. The experiment is classed as cell-based, Human. The note with it: compared to empty vector. How it is done: FIG. 9A is a pair of photographs of immunoblots. ZR-75-1/MUC1siRNA cells were transfected with the empty pIRES-puro2 vector or a pIRES-puro2-Flag-MUC1-CD vector. Lysates were prepared from the cells and subjected to SDS-PAGE and immunoblotting using antibodies specific to MUC1-C or β-actin as a control. The molecular weights of proteins (as indicated on the left of the photographs) are expressed as kilodaltons (kDa).
FIG. 9B is a pair of photographs of immunoblots. ZR-75-1/MUC1siRNA cells were transfected with the empty pIRES-puro2 vector or a pIRES-puro2-Flag-MUC1-CD vector. Lysates were prepared from the cells and subjected to immunoprecipitation using antibodies specific to IKKγ. Immunoprecipitates were immunoblotted using antibodies specific for IKKβ or IKKγ as indicated. The molecular weights of proteins (as indicated on the left of the photographs) are expressed as kilodaltons (kDa).
FIG. 9C is a pair of photographs of immunoblots. ZR-75-1/MUC1siRNA cells were transfected with the empty pIRES-puro2 vector or a pIRES-puro2-Flag-MUC1-CD vector. Lysates were prepared from the cells and subjected to immunoprecipitation using antibodies specific for IKKβ. Immunoprecipitates were immunoblotted using antibodies specific for phospho-IKKβ-ser-181 or IKKβ as indicated. The molecular weights of proteins (as indicated on the left of the photographs) are expressed as kilodaltons (kDa).
FIG. 9D is a pair of photographs of immunoblots. Cytosolic fractions were prepared from ZR-75-1/MUC1siRNA cells transfected with the empty pIRES-puro2 vector or a pIRES-puro2-Flag-MUC1-CD vector. Lysates were immunoblotted with anti-phospho-IκBα and anti-IκBα antibodies where indicated. The molecular weights of proteins (as indicated on the left of the photographs) are expressed as kilodaltons (kDa).
FIG. 9E is a photograph of an immunoblot. Nuclear fractions were prepared from ZR-75-1/MUC1siRNA cells transfected with the empty pIRES-puro2 vector or a pIRES-puro2-Flag-MUC1-CD vector and subjected to immunoblotting with antibodies specific for NF-κB or lamin B as a control. As a further control for the quality of nuclear fractionation, immunoblotting for IκBα was performed using antibodies specific for IκBα. The molecular weights of proteins (as indicated on the left of the photographs) are expressed as kilodaltons (kDa).
Subcellular fractionation. Nuclear and cytosolic fractions were prepared as described in Kharbanda et al. (1996) Cancer Res. 56:3617-3621.
Immunoprecipitation and immunoblotting. Lysates from subconfluent cells were prepared as described in Ren et al. (2004) Cancer Cell 5:163-175. […] The immune complexes were detected with horseradish peroxidase-conjugated secondary (anti-IgG) antibodies (Amersham Biosciences) and enhanced chemiluminescence (ECL; Amersham Biosciences). […]

IKKβ-IKKγ complexes, sequence (O14920 whole entry): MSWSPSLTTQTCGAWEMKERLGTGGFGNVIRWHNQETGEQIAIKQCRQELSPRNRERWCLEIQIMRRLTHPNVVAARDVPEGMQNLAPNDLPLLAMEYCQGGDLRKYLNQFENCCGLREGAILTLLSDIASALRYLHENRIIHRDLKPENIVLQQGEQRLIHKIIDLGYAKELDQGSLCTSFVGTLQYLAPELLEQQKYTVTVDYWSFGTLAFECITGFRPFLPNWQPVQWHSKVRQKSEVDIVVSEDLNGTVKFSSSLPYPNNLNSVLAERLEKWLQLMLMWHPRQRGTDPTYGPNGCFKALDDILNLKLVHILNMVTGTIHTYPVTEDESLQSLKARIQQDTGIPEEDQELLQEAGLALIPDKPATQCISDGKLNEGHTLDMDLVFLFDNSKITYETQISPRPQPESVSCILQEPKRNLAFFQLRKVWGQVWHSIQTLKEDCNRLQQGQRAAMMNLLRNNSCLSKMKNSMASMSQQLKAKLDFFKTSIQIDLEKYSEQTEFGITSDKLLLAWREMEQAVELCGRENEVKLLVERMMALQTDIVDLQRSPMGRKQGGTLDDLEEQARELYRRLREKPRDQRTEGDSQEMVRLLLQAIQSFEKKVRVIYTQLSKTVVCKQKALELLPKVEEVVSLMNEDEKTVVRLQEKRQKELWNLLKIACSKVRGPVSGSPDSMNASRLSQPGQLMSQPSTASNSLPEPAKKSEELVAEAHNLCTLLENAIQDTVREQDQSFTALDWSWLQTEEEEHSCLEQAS
IKKβ-IKKγ complexes, sequence (Q9Y6K9 whole entry): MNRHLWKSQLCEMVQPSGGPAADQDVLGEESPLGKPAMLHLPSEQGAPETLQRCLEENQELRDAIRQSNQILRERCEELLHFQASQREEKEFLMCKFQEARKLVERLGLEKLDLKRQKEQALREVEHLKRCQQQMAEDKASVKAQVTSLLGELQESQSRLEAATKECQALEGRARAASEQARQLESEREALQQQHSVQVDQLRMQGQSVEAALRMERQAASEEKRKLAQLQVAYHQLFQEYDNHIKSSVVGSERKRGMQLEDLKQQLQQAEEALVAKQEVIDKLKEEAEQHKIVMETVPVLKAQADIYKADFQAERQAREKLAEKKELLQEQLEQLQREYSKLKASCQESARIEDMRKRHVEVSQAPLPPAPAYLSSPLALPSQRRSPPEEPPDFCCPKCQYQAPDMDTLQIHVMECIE

In the case of “MUC1-CD: 72 amino acid cytoplasmic domain of human MUC1, SEQ ID NO:2”, the “interaction between IKKβ and IKKγ” value in experiment [1] is “increases the interaction between IKKβ and IKKγ”. In experiment [2], the IKKβ-IKKγ complex formation result is on record as “increases in IKKβ-IKKγ complex formation” and the “phosphorylation of IKKβ on Ser-181” value is “increased phosphorylation”. The “phosphorylation of IκBα” value in experiment [2] (cytosolic fractions) is recorded as “increased phosphorylation”. Moreover, the “targeting of NF-κB p65 to the nucleus” value in experiment [2] (nuclear fractions) was “increased targeting of NF-κB p65 to the nucleus”.
